Assay results reported in ChEMBL document CHEMBL5247618, “Discovery and optimization of 4-anilinoquinazoline derivatives spanning ATP binding site and allosteric site as effective EGFR-C797S inhibitors” (Eur J Med Chem, 2022).

What was measured:
in vivo [1] = settings: Sprague-Dawley, rat, po, 10 mg/kg
in vivo [2] = settings: Sprague-Dawley, rat, iv, 1 mg/kg
in vivo [3] = settings: Sprague-Dawley, rat, iv, 1 mg/kg; remark: listed apart in the source
in vivo [4] = settings: Sprague-Dawley, rat, po, 10 mg/kg; remark: listed apart in the source

## COc1cc2c(Nc3ccc(Oc4ccccc4)cc3)ncnc2cc1OCC1CCN(C)CC1
In vivo [1]
  bioavailability: 9.33%
In vivo [2]
  half-life: 1.97 h
In vivo [3]
  Cmax: 69.6 ng/mL
In vivo [4]
  Cmax: 7.43 ng/mL
